Results from patent US9156845B2, “4-(substituted amino)-7H-pyrrolo[2,3-d] pyrimidines as LRRK2 inhibitors” (Pfizer Inc., priority 2012, dated 2015).
Read-outs that look alike come from different tables or passages of the source.

How the values were obtained:
Assay in all cases: ActivX kinase probe assay (human PBMC)
Format in all cases: binding
AKT1 = AKT1 (Homo sapiens (Human), UniProt P31749); settings: read-out: percent inhibition
BRAF = BRAF (Homo sapiens (Human), UniProt P15056); settings: read-out: percent inhibition
CaMK1d = CaMK1d (Homo sapiens (Human), UniProt Q8IU85); settings: read-out: percent inhibition
CaMK2d = CaMK2d (Homo sapiens (Human), UniProt Q13557); settings: read-out: percent inhibition
Sequence of CaMK2d (Q13557 whole entry): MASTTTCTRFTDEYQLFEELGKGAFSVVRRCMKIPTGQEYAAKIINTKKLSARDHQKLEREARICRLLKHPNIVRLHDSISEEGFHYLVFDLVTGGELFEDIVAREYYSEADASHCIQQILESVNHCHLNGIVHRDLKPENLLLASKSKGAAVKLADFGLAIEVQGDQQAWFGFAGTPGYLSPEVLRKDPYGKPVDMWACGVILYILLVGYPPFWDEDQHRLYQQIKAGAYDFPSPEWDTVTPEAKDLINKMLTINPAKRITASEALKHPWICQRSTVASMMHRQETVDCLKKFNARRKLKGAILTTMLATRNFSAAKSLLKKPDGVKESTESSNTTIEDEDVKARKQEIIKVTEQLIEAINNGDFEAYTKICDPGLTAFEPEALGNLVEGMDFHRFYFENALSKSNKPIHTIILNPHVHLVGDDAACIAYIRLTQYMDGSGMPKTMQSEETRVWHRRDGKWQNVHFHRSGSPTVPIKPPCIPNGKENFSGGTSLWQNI

CDC2 = CDC2 (Homo sapiens (Human), UniProt P06493); settings: read-out: percent inhibition
Sequence of CDC2 (P06493 whole entry): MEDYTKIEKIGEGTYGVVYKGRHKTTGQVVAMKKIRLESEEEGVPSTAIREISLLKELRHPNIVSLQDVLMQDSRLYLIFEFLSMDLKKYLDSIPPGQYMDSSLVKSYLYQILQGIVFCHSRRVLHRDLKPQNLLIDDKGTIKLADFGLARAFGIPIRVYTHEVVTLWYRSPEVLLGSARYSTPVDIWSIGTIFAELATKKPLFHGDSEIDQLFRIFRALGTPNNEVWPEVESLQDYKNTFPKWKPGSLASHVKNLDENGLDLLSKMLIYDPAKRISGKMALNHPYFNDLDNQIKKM

FGR = FGR (Homo sapiens (Human), UniProt P09769); settings: read-out: percent inhibition
FRAP = FRAP (Homo sapiens (Human), UniProt P42345); settings: read-out: percent inhibition
GCK = GCK (Homo sapiens (Human), UniProt Q12851); settings: read-out: percent inhibition
Sequence of GCK (Q12851 whole entry): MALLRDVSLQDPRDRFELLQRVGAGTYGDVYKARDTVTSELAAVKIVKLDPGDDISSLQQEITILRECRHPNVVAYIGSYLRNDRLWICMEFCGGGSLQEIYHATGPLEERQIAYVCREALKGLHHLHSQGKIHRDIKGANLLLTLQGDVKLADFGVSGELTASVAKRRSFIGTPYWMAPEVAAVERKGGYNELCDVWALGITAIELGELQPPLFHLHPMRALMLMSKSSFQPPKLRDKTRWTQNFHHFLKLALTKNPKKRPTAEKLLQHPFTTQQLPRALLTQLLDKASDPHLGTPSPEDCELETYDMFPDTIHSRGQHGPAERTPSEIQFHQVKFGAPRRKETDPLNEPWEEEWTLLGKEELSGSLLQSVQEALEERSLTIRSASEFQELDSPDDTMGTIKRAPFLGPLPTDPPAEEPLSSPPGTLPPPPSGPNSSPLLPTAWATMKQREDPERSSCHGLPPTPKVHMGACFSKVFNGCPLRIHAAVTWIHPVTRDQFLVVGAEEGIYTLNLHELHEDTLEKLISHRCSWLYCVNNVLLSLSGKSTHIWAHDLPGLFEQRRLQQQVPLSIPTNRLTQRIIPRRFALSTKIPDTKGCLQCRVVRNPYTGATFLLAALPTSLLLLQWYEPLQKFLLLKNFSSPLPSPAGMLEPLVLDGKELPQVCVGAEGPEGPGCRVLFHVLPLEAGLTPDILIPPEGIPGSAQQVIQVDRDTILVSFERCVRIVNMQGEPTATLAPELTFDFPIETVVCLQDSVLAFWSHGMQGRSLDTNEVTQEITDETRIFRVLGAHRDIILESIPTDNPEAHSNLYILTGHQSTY

IKKa = IKKa (Homo sapiens (Human), UniProt O15111); settings: read-out: percent inhibition
JAK1 = JAK1 (Homo sapiens (Human), UniProt P23458); settings: read-out: percent inhibition
JAK2 domain2 = JAK2 domain2 (Homo sapiens (Human), UniProt O60674); settings: read-out: percent inhibition
LATS2 = LATS2 (Homo sapiens (Human), UniProt Q9NRM7); settings: read-out: percent inhibition
LYN = LYN (Homo sapiens (Human), UniProt P07948); settings: read-out: percent inhibition
Sequence of LYN (P07948 whole entry): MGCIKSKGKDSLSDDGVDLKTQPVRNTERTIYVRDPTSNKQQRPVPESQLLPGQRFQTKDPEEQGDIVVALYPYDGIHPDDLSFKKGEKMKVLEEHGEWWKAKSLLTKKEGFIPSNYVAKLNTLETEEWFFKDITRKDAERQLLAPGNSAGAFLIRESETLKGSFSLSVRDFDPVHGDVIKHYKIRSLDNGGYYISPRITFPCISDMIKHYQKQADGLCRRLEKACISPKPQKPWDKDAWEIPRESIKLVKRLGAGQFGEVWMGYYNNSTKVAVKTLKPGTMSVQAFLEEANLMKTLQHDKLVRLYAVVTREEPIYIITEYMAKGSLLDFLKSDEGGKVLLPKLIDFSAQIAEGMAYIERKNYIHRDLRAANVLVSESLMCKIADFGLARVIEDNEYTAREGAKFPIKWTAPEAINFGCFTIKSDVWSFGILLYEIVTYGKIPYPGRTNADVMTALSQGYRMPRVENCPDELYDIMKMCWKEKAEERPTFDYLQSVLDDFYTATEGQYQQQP

MAP2K3 = MAP2K3 (Homo sapiens (Human), UniProt P46734); settings: read-out: percent inhibition
MAP3K1 = MAP3K1 (Homo sapiens (Human), UniProt Q13233); settings: read-out: percent inhibition
MAST3 = MAST3 (Homo sapiens (Human), UniProt O60307); settings: read-out: percent inhibition
NDR1 = NDR1 (Homo sapiens (Human), UniProt Q15208); settings: read-out: percent inhibition
Sequence of NDR1 (Q15208 whole entry): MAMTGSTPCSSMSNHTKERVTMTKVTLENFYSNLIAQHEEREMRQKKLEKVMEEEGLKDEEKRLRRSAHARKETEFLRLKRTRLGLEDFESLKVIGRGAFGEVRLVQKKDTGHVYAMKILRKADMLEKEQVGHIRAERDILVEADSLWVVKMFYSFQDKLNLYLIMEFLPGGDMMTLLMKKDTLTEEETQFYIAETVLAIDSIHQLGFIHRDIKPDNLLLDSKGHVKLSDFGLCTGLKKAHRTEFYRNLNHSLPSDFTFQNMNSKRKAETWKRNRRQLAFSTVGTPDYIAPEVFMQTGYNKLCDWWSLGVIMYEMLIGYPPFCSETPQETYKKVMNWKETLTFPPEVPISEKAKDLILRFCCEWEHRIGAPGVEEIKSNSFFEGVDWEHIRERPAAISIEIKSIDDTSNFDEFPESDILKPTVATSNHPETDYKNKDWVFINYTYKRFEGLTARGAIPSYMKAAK

NDR2 = NDR2 (Homo sapiens (Human), UniProt Q9Y2H1); settings: read-out: percent inhibition
NuaK2 = NuaK2 (Homo sapiens (Human), UniProt Q9H093); settings: read-out: percent inhibition
p70S6K = p70S6K (Homo sapiens (Human), UniProt P23443); settings: read-out: percent inhibition
p70S6K, p70S6Kb = system: p70S6K, p70S6Kb
PCTAIRE2, PCTAIRE3 = system: PCTAIRE2, PCTAIRE3
PI4KB = PI4KB (Homo sapiens (Human), UniProt Q9UBF8); settings: read-out: percent inhibition
PIK3CB = PIK3CB (Homo sapiens (Human), UniProt P42338); settings: read-out: percent inhibition
PIP4K2A = PIP4K2A (Homo sapiens (Human), UniProt P48426); settings: read-out: percent inhibition
PITSLRE = system: PITSLRE
PKD2 = PKD2 (Homo sapiens (Human), UniProt Q9BZL6); settings: read-out: percent inhibition
RSK1 domain1 = RSK1 domain1 (Homo sapiens (Human), UniProt Q15418); settings: read-out: percent inhibition
Sequence of RSK1 domain1 (Q15418 whole entry, the tested form may be a part): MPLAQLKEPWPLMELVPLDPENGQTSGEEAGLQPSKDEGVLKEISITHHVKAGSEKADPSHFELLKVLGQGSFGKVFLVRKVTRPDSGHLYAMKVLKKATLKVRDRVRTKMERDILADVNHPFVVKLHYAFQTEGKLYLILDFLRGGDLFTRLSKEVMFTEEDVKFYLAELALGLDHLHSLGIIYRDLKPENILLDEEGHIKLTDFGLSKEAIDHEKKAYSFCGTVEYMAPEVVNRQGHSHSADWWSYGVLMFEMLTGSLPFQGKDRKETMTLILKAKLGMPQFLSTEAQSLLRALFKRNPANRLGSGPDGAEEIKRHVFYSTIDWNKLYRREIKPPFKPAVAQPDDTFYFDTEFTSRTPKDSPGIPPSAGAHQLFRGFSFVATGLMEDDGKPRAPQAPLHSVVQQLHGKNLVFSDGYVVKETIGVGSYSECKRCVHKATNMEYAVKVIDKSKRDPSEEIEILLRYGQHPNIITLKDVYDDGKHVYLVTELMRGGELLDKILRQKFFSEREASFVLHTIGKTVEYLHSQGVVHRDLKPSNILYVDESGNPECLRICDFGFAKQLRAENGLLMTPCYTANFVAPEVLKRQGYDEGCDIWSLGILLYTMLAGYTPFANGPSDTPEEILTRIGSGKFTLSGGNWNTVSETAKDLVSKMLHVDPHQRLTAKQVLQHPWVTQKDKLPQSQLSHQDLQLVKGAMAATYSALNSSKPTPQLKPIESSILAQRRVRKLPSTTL

SGK3 = SGK3 (Homo sapiens (Human), UniProt Q96BR1); settings: read-out: percent inhibition
SLK = SLK (Homo sapiens (Human), UniProt Q9H2G2); settings: read-out: percent inhibition
Sequence of SLK (Q9H2G2 whole entry): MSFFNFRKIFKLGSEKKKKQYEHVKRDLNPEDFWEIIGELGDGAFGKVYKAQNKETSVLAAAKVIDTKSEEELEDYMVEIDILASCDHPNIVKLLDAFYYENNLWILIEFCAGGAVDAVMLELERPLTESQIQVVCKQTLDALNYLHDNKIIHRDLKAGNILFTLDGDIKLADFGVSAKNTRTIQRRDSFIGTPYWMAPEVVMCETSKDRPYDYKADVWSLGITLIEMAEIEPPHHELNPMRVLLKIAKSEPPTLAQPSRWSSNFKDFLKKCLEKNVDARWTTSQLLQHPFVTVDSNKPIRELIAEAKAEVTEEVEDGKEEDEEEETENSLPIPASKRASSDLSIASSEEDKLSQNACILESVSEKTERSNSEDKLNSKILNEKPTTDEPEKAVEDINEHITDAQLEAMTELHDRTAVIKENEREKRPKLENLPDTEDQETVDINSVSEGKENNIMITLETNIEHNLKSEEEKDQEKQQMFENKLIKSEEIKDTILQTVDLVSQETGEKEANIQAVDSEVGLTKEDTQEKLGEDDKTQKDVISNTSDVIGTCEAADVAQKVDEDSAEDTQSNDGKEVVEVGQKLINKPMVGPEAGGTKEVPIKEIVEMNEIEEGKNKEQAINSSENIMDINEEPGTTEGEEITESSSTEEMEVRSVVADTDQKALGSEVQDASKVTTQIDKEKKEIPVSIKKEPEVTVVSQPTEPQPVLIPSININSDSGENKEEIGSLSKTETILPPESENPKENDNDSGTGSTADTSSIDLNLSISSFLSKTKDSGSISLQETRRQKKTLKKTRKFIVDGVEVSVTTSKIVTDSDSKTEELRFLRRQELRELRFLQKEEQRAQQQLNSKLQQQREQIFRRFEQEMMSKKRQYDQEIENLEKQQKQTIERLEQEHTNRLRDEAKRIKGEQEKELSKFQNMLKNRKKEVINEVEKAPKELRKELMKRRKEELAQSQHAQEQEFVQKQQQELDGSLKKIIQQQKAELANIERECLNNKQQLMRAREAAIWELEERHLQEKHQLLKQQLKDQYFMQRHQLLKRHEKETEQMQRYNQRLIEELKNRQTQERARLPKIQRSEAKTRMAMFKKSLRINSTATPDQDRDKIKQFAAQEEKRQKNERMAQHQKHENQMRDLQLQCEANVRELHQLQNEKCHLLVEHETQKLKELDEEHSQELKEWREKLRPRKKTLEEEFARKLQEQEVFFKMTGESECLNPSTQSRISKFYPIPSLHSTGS

SMG1 = SMG1 (Homo sapiens (Human), UniProt Q96Q15); settings: read-out: percent inhibition
SRC = SRC (Homo sapiens (Human), UniProt P12931); settings: read-out: percent inhibition
STLK5 = STLK5 (Homo sapiens (Human), UniProt Q7RTN6); settings: read-out: percent inhibition
TAO2 = TAO2 (Homo sapiens (Human), UniProt Q9UL54); settings: read-out: percent inhibition
ZAP70 = ZAP70 (Homo sapiens (Human), UniProt P43403); settings: read-out: percent inhibition

Sequence of AKT1 (P31749 whole entry): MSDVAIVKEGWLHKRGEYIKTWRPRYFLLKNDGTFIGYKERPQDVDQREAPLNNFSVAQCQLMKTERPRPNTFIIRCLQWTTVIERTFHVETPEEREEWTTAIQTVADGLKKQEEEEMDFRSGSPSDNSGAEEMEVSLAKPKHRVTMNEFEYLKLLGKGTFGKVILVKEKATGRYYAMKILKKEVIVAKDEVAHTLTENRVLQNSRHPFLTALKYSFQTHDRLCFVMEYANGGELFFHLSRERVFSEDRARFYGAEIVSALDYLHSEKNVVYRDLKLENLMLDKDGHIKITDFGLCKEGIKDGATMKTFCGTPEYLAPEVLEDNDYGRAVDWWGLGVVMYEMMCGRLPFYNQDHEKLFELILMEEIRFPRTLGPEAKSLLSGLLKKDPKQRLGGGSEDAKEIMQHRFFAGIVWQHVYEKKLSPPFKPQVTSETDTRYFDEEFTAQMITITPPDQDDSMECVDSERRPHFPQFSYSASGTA

Structure (SMILES): Cn1cc(-c2c[nH]c3ncnc(N4CCOCC4)c23)cn1 [Example 1, 5-(1-Methyl-1H-pyrazol-4-yl)-4-(morpholin-4-yl)-7H-pyrrolo[2,3-d]pyrimidine]
- inhibition at 0.1 µM (AKT1; AKT1, 0.1 μM): 11.3%
- inhibition at 1 µM (AKT1; AKT1, 1 μM): 18.8%
- inhibition at 0.1 µM (BRAF; BRAF, 0.1 μM): -6.5%
- inhibition at 1 µM (BRAF; BRAF, 1 μM): -51.5%
- inhibition at 0.1 µM (CaMK1d; CaMK1d, 0.1 μM): 8.4%
- inhibition at 1 µM (CaMK1d; CaMK1d, 1 μM): 3.2%
- inhibition at 0.1 µM (CaMK2d; CaMK2d, 0.1 μM): -45.3%
- inhibition at 1 µM (CaMK2d; CaMK2d, 1 μM): -38.1%
- inhibition at 0.1 µM (CDC2; CDC2, 0.1 μM): -4%
- inhibition at 1 µM (CDC2; CDC2, 1 μM): 14.7%
- inhibition at 0.1 µM (FGR; FGR, 0.1 μM): 12.9%
- inhibition at 1 µM (FGR; FGR, 1 μM): 4.6%
- inhibition at 0.1 µM (FRAP; FRAP, 0.1 μM): -3.2%
- inhibition at 1 µM (FRAP; FRAP, 1 μM): -1.2%
- inhibition at 0.1 µM (GCK; GCK, 0.1 μM): 4.4%
- inhibition at 1 µM (GCK; GCK, 1 μM): -6.7%
- inhibition at 0.1 µM (IKKa; IKKa, 0.1 μM): -20%
- inhibition at 1 µM (IKKa; IKKa, 1 μM): -40.5%
- inhibition at 0.1 µM (JAK1; JAK1, 0.1 μM): 15%
- inhibition at 1 µM (JAK1; JAK1, 1 μM): 54.2%
- inhibition at 0.1 µM (JAK2 domain2; JAK2 domain2, 0.1 μM): 13.8%
- inhibition at 1 µM (JAK2 domain2; JAK2 domain2, 1 μM): 16.7%
- inhibition at 0.1 µM (LATS2; LATS2, 0.1 μM): 21.2%
- inhibition at 1 µM (LATS2; LATS2, 1 μM): 11%
- inhibition at 0.1 µM (LYN; LYN, 0.1 μM): 3.8%
- inhibition at 1 µM (LYN; LYN, 1 μM): 7.8%
- inhibition at 0.1 µM (MAP2K3; MAP2K3, 0.1 μM): 14.4%
- inhibition at 1 µM (MAP2K3; MAP2K3, 1 μM): -9%
- inhibition at 0.1 µM (MAP3K1; MAP3K1, 0.1 μM): -9.4%
- inhibition at 1 µM (MAP3K1; MAP3K1, 1 μM): 11.9%
- inhibition at 0.1 µM (MAST3; MAST3, 0.1 μM): 9%
- inhibition at 1 µM (MAST3; MAST3, 1 μM): -6.7%
- inhibition at 0.1 µM (NDR1; NDR1, 0.1 μM): -19.6%
- inhibition at 1 µM (NDR1; NDR1, 1 μM): -7.8%
- inhibition at 0.1 µM (NDR2; NDR2, 0.1 μM): 22.8%
- inhibition at 1 µM (NDR2; NDR2, 1 μM): 31.2%
- inhibition at 0.1 µM (NuaK2; NuaK2, 0.1 μM): 3.6%
- inhibition at 1 µM (NuaK2; NuaK2, 1 μM): 8.9%
- inhibition at 0.1 µM (p70S6K; p70S6K, 0.1 μM): 23%
- inhibition at 1 µM (p70S6K; p70S6K, 1 μM): 18.9%
- percent inhibition (p70S6K, p70S6Kb; 0.1 μM): 9.4%
- percent inhibition (p70S6K, p70S6Kb; 1 μM): −3.5%
- percent inhibition (PCTAIRE2, PCTAIRE3; 0.1 μM): 7.5%
- percent inhibition (PCTAIRE2, PCTAIRE3; 1 μM): −2.5%
- inhibition at 0.1 µM (PI4KB; PI4KB, 0.1 μM): 34%
- inhibition at 1 µM (PI4KB; PI4KB, 1 μM): 16.1%
- inhibition at 0.1 µM (PIK3CB; PIK3CB, 0.1 μM): -2.6%
- inhibition at 1 µM (PIK3CB; PIK3CB, 1 μM): -29.8%
- inhibition at 0.1 µM (PIP4K2A; PIP4K2A, 0.1 μM): 12.1%
- inhibition at 1 µM (PIP4K2A; PIP4K2A, 1 μM): 6.8%
- percent inhibition (PITSLRE; 0.1 μM): −13%
- percent inhibition (PITSLRE; 1 μM): −3.2%
- inhibition at 0.1 µM (PKD2; PKD2, 0.1 μM): 2.7%
- inhibition at 1 µM (PKD2; PKD2, 1 μM): 20.1%
- inhibition at 0.1 µM (RSK1 domain1; RSK1 domain1, 0.1 μM): 16.3%
- inhibition at 1 µM (RSK1 domain1; RSK1 domain1, 1 μM): 59.8%
- inhibition at 0.1 µM (SGK3; SGK3, 0.1 μM): 2.5%
- inhibition at 1 µM (SGK3; SGK3, 1 μM): 9.9%
- inhibition at 0.1 µM (SLK; SLK, 0.1 μM): 22.9%
- inhibition at 1 µM (SLK; SLK, 1 μM): 50.6%
- inhibition at 0.1 µM (SMG1; SMG1, 0.1 μM): -1.3%
- inhibition at 1 µM (SMG1; SMG1, 1 μM): -19.2%
- inhibition at 0.1 µM (SRC; SRC, 0.1 μM): 1.5%
- inhibition at 1 µM (SRC; SRC, 1 μM): 9.7%
- inhibition at 0.1 µM (STLK5; STLK5, 0.1 μM): -1.5%
- inhibition at 1 µM (STLK5; STLK5, 1 μM): -46.5%
- inhibition at 0.1 µM (TAO2; TAO2, 0.1 μM): -6.3%
- inhibition at 1 µM (TAO2; TAO2, 1 μM): -24.2%
- inhibition at 0.1 µM (ZAP70; ZAP70, 0.1 μM): -23.2%
- inhibition at 1 µM (ZAP70; ZAP70, 1 μM): 3.1%

Structure (SMILES): N#Cc1cccc(-c2c[nH]c3ncnc(N4CCOCC4)c23)c1 [Example 4, 3-[4-(Morpholin-4-yl)-7H-pyrrolo[2,3-d]pyrimidin-5-yl]benzonitrile]
- inhibition at 0.1 µM (AKT1): -8.8%
- inhibition at 1 µM (AKT1): -6.3%
- inhibition at 0.1 µM (BRAF): 1.2%
- inhibition at 1 µM (BRAF): -1.2%
- inhibition at 0.1 µM (CaMK1d): -12.1%
- inhibition at 1 µM (CaMK1d): 0.9%
- inhibition at 0.1 µM (CaMK2d): -0.4%
- inhibition at 1 µM (CaMK2d): 10.8%
- inhibition at 0.1 µM (CDC2): -6.7%
- inhibition at 1 µM (CDC2): 12.9%
- inhibition at 0.1 µM (FGR): -10.8%
- inhibition at 1 µM (FGR): 1.7%
- inhibition at 0.1 µM (FRAP): -20.7%
- inhibition at 1 µM (FRAP): 9.8%
- inhibition at 0.1 µM (GCK): 3.6%
- inhibition at 1 µM (GCK): 31.2%
- inhibition at 0.1 µM (IKKa): -12.1%
- inhibition at 1 µM (IKKa): -6.6%
- inhibition at 0.1 µM (JAK1): -9.3%
- inhibition at 1 µM (JAK1): 5%
- inhibition at 0.1 µM (JAK2 domain2): 0.7%
- inhibition at 1 µM (JAK2 domain2): 16.4%
- inhibition at 0.1 µM (LATS2): -7.2%
- inhibition at 1 µM (LATS2): 16.2%
- inhibition at 0.1 µM (LYN): -5.4%
- inhibition at 1 µM (LYN): 0.8%
- inhibition at 0.1 µM (MAP2K3): -12.5%
- inhibition at 1 µM (MAP2K3): 6.2%
- inhibition at 0.1 µM (MAP3K1): 6.4%
- inhibition at 1 µM (MAP3K1): 44.5%
- inhibition at 0.1 µM (MAST3): 2.6%
- inhibition at 1 µM (MAST3): 0.8%
- inhibition at 0.1 µM (NDR1): -4.4%
- inhibition at 1 µM (NDR1): 1.7%
- inhibition at 0.1 µM (NDR2): -18.7%
- inhibition at 1 µM (NDR2): 22.1%
- inhibition at 0.1 µM (NuaK2): -11.9%
- inhibition at 1 µM (NuaK2): 18.1%
- inhibition at 0.1 µM (p70S6K): -9%
- inhibition at 1 µM (p70S6K): 11.1%
- percent inhibition (p70S6K, p70S6Kb; 0.1 μM): −10.5%
- percent inhibition (p70S6K, p70S6Kb; 1 μM): −9.6%
- percent inhibition (PCTAIRE2, PCTAIRE3; 0.1 μM): −5.4%
- percent inhibition (PCTAIRE2, PCTAIRE3; 1 μM): 24.7%
- inhibition at 0.1 µM (PI4KB): -7.4%
- inhibition at 1 µM (PI4KB): 4.9%
- inhibition at 0.1 µM (PIK3CB): 0.5%
- inhibition at 1 µM (PIK3CB): -2.5%
- inhibition at 0.1 µM (PIP4K2A): -12.1%
- inhibition at 1 µM (PIP4K2A): 1.9%
- percent inhibition (PITSLRE; 0.1 μM): −12.4%
- percent inhibition (PITSLRE; 1 μM): 10.7%
- inhibition at 0.1 µM (PKD2): 0.7%
- inhibition at 1 µM (PKD2): 9.4%
- inhibition at 0.1 µM (RSK1 domain1): -26.8%
- inhibition at 1 µM (RSK1 domain1): 32.9%
- inhibition at 0.1 µM (SGK3): -5.5%
- inhibition at 1 µM (SGK3): -0.8%
- inhibition at 0.1 µM (SLK): 10.5%
- inhibition at 1 µM (SLK): 60.7%
- inhibition at 0.1 µM (SMG1): -2.5%
- inhibition at 1 µM (SMG1): 13%
- inhibition at 0.1 µM (SRC): -18.3%
- inhibition at 1 µM (SRC): -2.2%
- inhibition at 0.1 µM (STLK5): -15.4%
- inhibition at 1 µM (STLK5): 1.2%
- inhibition at 0.1 µM (TAO2): -12.7%
- inhibition at 1 µM (TAO2): -2.5%
- inhibition at 0.1 µM (ZAP70): -4.9%
- inhibition at 1 µM (ZAP70): 6.8%
